{"source": "the PolyMetriX glass transition set", "note": "± gives the standard deviation of the reports."}
{"units": {"glass transition temperature": "°C"}}
{"smiles": "*Oc1ccc(Oc2ccc(S(=O)c3ccc(Oc4ccc(Oc5cccc(*)n5)cc4)cc3)cc2)cc1", "note": "(repeat unit)", "glass transition temperature": 138.00}
{"smiles": "*CC(*)OCCCCCCCCCCCOc1ccc(C(=O)Oc2ccc(OCC)cc2)cc1", "note": "(repeat unit)", "glass transition temperature": 37.00}
{"smiles": "*CCCCCCCCCCCCCCCCOC(=O)NCCCCCCNC(=O)O*", "note": "(repeat unit)", "glass transition temperature": 39.00}
{"smiles": "*CC(*)C(=O)Oc1cccc2ccccc12", "note": "(repeat unit)", "glass transition temperature": 85.00}
{"smiles": "*c1ccc(NC(=O)Cc2ccc(-c3sc(-c4ccc(CC(=O)Nc5ccc(-c6sc(*)c(-c7ccccc7)c6-c6ccccc6)cc5)cc4)c(-c4ccccc4)c3-c3ccccc3)cc2)cc1", "note": "(repeat unit)", "glass transition temperature": 273.00}
{"smiles": "*CC1CC2CC1C1CCC(CN3C(=O)c4ccc(-c5ccc6c(c5)C(=O)N(*)C6=O)cc4C3=O)C21", "note": "(repeat unit)", "glass transition temperature": 230.00}
{"smiles": "*Oc1c(Cl)cc(C(c2cc(Cl)c(OC(*)=O)c(Cl)c2)C(Cl)(Cl)Cl)cc1Cl", "note": "(repeat unit)", "glass transition temperature": 273.00}
{"smiles": "*Oc1ccc(CC(NC(=O)Cc2ccc(OC(=O)COCCOCC(*)=O)cc2)C(=O)OCCCCCCCC)cc1", "note": "(repeat unit)", "glass transition temperature": 23.00}
{"smiles": "*CC(*)OCC", "note": "(repeat unit) [Poly(ethyl vinyl ether)]", "glass transition temperature": "-26.58 ± 9.8"}
{"smiles": "*CCCCCNc1nc(NCCCCCc2nc3cc(-c4ccc5[nH]c(*)nc5c4)ccc3[nH]2)nc(N(CC)CC)n1", "note": "(repeat unit)", "glass transition temperature": 190.00}
{"smiles": "*Oc1ccc(OC(=O)c2ccc(C(*)=O)cc2)cc1C1CCCCCCC1", "note": "(repeat unit)", "glass transition temperature": 213.00}
{"smiles": "*CC[CH2][Sn]([CH3])([CH3])[CH2]CCOC(=O)C(CCCCCCOc1ccc(-c2ccc(OCc3ccc([N+](=O)[O-])cc3)cc2)cc1)C(=O)O*", "note": "(repeat unit)", "glass transition temperature": 40.50}
{"smiles": "*c1ccc(-c2nc3ccc(Oc4ccc5nc(*)c(-c6ccccc6)nc5c4)cc3nc2-c2ccccc2)cc1", "note": "(repeat unit)", "glass transition temperature": 304.00}
{"smiles": "*c1cccc(-c2nc3cc4nc(-c5ccccc5)c(*)nc4cc3nc2-c2ccccc2)c1", "note": "(repeat unit)", "glass transition temperature": 365.00}
{"smiles": "*Nc1ccc(C(c2ccc(NC(=O)c3ccc(-c4ccc(C(*)=O)cc4)cc3)cc2)(P2(=O)Oc3ccccc3-c3ccccc32)P2(=O)Oc3ccccc3-c3ccccc32)cc1", "note": "(repeat unit)", "glass transition temperature": 251.00}
{"smiles": "*c1ccc(OC(=O)c2ccc(C(=O)Oc3ccc(C4(*)OCc5ccccc54)cc3)cc2)cc1", "note": "(repeat unit)", "glass transition temperature": 312.00}
{"smiles": "*c1ccc(Oc2ccc(C(c3ccc(Oc4ccc(-n5c(=O)c6cc7c(=O)n(*)c(=O)c7cc6c5=O)cc4)cc3)(C(F)(F)F)C(F)(F)F)cc2)cc1", "note": "(repeat unit)", "glass transition temperature": "302.50 ± 11"}
{"smiles": "*c1ccc2c(c1)C(=O)N(c1ccc(Sc3ccc(Sc4ccc(Sc5ccc(Sc6ccc(N7C(=O)c8ccc(C(*)(C(F)(F)F)C(F)(F)F)cc8C7=O)cc6)cc5)cc4)cc3)cc1)C2=O", "note": "(repeat unit)", "glass transition temperature": 216.00}
{"smiles": "*Oc1ccc(Nc2ccc(/N=N/c3ccc(Nc4ccc(*)cc4)cc3)cc2)cc1", "note": "(repeat unit)", "glass transition temperature": 169.00}
{"smiles": "*Oc1ccc(NC(=O)c2ccc(C(=O)Nc3ccc(Oc4ccc(C(c5ccc(*)cc5)(C(F)(F)F)C(F)(F)F)cc4)cc3)cc2)cc1", "note": "(repeat unit)", "glass transition temperature": 243.00}
{"smiles": "*CC(*)(C)c1ccc2ccccc2c1", "note": "(repeat unit)", "glass transition temperature": 208.00}
{"smiles": "*Oc1ccc2ccc(Oc3ccc(C(=O)Nc4ccc(Oc5ccc(Oc6ccc(NC(=O)c7ccc(*)cc7)cc6)cc5)cc4)cc3)cc2c1", "note": "(repeat unit)", "glass transition temperature": 191.00}
{"smiles": "*c1ccc(C(C)(C)c2ccc(N3C(=O)c4ccc(Oc5cccc6c(Oc7ccc8c(c7)C(=O)N(*)C8=O)cccc56)cc4C3=O)cc2)cc1", "note": "(repeat unit)", "glass transition temperature": 265.00}
{"smiles": "*CCSCc1ccc(Cc2ccc(CSCCOC(=O)CCSCc3ccc(Cc4ccc(CSCCC(=O)O*)cc4)cc3)cc2)cc1", "note": "(repeat unit)", "glass transition temperature": 12.00}
{"smiles": "*c1ccc(Oc2ccc(C(c3ccc(Oc4ccc(-c5nnc(*)c6c(-c7ccc(F)cc7)c(-c7ccc(F)cc7)c(-c7ccc(F)cc7)c(-c7ccc(F)cc7)c56)cc4)cc3)(C(F)(F)F)C(F)(F)F)cc2)cc1", "note": "(repeat unit)", "glass transition temperature": 288.00}
{"smiles": "*C(=O)NNC(=O)c1ccc([Si](c2ccccc2)(c2ccccc2)c2ccc(C(=O)NNC(=O)c3ccc(*)o3)cc2)cc1", "note": "(repeat unit)", "glass transition temperature": 252.00}
{"smiles": "*CCCCCCOC(=O)CC(=O)OCCCCCCOc1ccc(-n2on2-c2ccc(O*)cc2)cc1", "note": "(repeat unit)", "glass transition temperature": 16.00}
{"smiles": "*Oc1c(C)cc(*)cc1C(C)CCCCCCCCCCCC", "note": "(repeat unit)", "glass transition temperature": -10.00}
{"smiles": "*c1ccc(Cc2ccc(N3C(=O)C4CCC5C(=O)N(*)C(=O)C5C4C3=O)cc2)cc1", "note": "(repeat unit)", "glass transition temperature": 341.00}
{"smiles": "*CCCCCC(=O)Nc1ccc(Oc2cccc(NC(=O)CCCCCN3C(=O)c4ccc(C(=O)c5ccc6c(c5)C(=O)N(*)C6=O)cc4C3=O)c2)cc1", "note": "(repeat unit)", "glass transition temperature": 170.00}
{"smiles": "*O[Si](*)(C)CCCCCCCCCCC(=O)Oc1ccc(-c2ccc(OC(=O)CCCCC(=O)OC3CC(C)CCC3C(C)C)cc2)cc1", "note": "(repeat unit)", "glass transition temperature": 16.50}
{"smiles": "*c1ccc(Oc2ccc(C(=O)c3ccc(Oc4ccc(-c5c6c(c(*)c7ccccc57)C(=O)N(CCCCCCCCCCCC)C6=O)cc4)cc3)cc2)cc1", "note": "(repeat unit)", "glass transition temperature": 147.00}
{"smiles": "*CC(c1ccccc1)C1C(=O)N(C)C(=O)C1*", "note": "(repeat unit)", "glass transition temperature": 205.00}
{"smiles": "*CCCCCCCCCCCCN1C(=O)c2ccc(C(c3ccc4c(c3)C(=O)N(CCCCCCCCCCCCN3C(=O)c5ccc6c7ccc8c9c(ccc(c%10ccc(c5c6%10)C3=O)c97)C(=O)N(*)C8=O)C4=O)(C(F)(F)F)C(F)(F)F)cc2C1=O", "note": "(repeat unit)", "glass transition temperature": 170.00}
{"smiles": "*/C=C/c1cc(OCCCCCC)c(*)cc1OC", "note": "(repeat unit)", "glass transition temperature": 60.00}
{"smiles": "*c1ccc(Oc2cc(C(C)(C)C)c(Oc3ccc(N4C(=O)c5ccc(S(=O)(=O)c6ccc7c(c6)C(=O)N(*)C7=O)cc5C4=O)cc3)cc2C(C)(C)C)cc1", "note": "(repeat unit)", "glass transition temperature": 263.00}
{"smiles": "*OP(=O)(Oc1c(Cl)c(Cl)c(*)c(Cl)c1Cl)Oc1c(Cl)c(Cl)c(Cl)c(Cl)c1Cl", "note": "(repeat unit)", "glass transition temperature": 133.00}
{"smiles": "*Oc1ccc(S(=O)(=O)c2ccc(Oc3ccc(C(C)(C)c4ccc(*)c(N)c4)cc3N)cc2)cc1", "note": "(repeat unit)", "glass transition temperature": 230.40}
{"smiles": "*CC(*)c1ccc(CCC(F)(F)C(F)(F)C(F)(F)C(F)(F)F)cc1", "note": "(repeat unit)", "glass transition temperature": 23.00}
{"smiles": "*CCCCOC(=O)c1ccc(N/C=N/c2ccc(C(=O)O*)cc2)cc1", "note": "(repeat unit)", "glass transition temperature": 91.00}
{"smiles": "*Cc1ccccc1C[n+]1ccc(-c2cc[n+](*)cc2)cc1", "note": "(repeat unit)", "glass transition temperature": 70.50}
{"smiles": "*CC(COc1ccc(-c2ccc(OC)cc2)cc1)O*", "note": "(repeat unit)", "glass transition temperature": 111.00}
{"smiles": "*CC(*)CCCCCCCCCI", "note": "(repeat unit)", "glass transition temperature": -6.00}
{"smiles": "*Cc1cc2cc(C(=O)Nc3cccc(NC(=O)c4cc5cc(*)c(OC(=O)COc6ccc7ccc(=O)oc7c6)cc5oc4=O)c3)c(=O)oc2cc1OC(=O)COc1ccc2ccc(=O)oc2c1", "note": "(repeat unit)", "glass transition temperature": 240.00}
{"smiles": "*c1ccc(C(c2ccc(C(=O)OC)cc2)c2ccc(N(*)c3ccc(C)cc3)cc2)cc1", "note": "(repeat unit)", "glass transition temperature": 222.00}
{"smiles": "*C(=O)c1ccc2c(c1)C(=O)N(c1ccc(Oc3cccc(N4C(=O)c5ccc(*)cc5C4=O)c3)cc1)C2=O", "note": "(repeat unit)", "glass transition temperature": 280.50}
{"smiles": "*c1ccc(-c2cc(-c3ccccc3)c3cc(-c4ccc5nc(*)cc(-c6ccccc6)c5c4)ccc3n2)cc1", "note": "(repeat unit)", "glass transition temperature": 395.00}
{"smiles": "*Nc1cc(NC(=O)c2ccc(C(*)=O)cc2)cc(C(=O)Oc2ccc(-c3ccccc3)cc2)c1", "note": "(repeat unit)", "glass transition temperature": 178.00}
{"smiles": "*Nc1cc(NC(=O)Nc2ccc(NC(*)=O)cc2)cc(C(=O)Nc2cccc3c2C(=O)c2ccccc2C3=O)c1", "note": "(repeat unit)", "glass transition temperature": 190.00}
{"smiles": "*Oc1ccc(S(=O)(=O)c2ccc(Oc3ccc(/C=C4\\CCC/C(=C\\c5ccc(*)cc5)C4=O)cc3)cc2)cc1", "note": "(repeat unit)", "glass transition temperature": 190.00}
{"smiles": "*C(=O)Nc1ccc(-c2ccc(NC(=O)N3CC(C)N(*)CC3C)cc2)cc1", "note": "(repeat unit)", "glass transition temperature": 250.00}
{"smiles": "*Oc1ccc(S(=O)(=O)c2ccc(Oc3ccc(-c4ccc(Oc5ccc(C(=O)c6ccc(*)cc6)cc5)cc4)cc3)cc2)cc1", "note": "(repeat unit)", "glass transition temperature": 206.00}
{"smiles": "*c1cc(C(c2ccc(OCCN(c3ccccc3)c3ccc(/C=C/C4=CC(=C(/C#N)S(C)(=O)=O)/CC(C)(C)C4)cc3)c(N3C(=O)c4ccc(Oc5ccc6c(c5)C(=O)N(*)C6=O)cc4C3=O)c2)(C(F)(F)F)C(F)(F)F)ccc1OCCN(c1ccccc1)c1ccc(/C=C/C2=CC(=C(/C#N)S(C)(=O)=O)/CC(C)(C)C2)cc1", "note": "(repeat unit)", "glass transition temperature": 234.00}
{"smiles": "*CC(*)c1ccc(C(=O)CCC)cc1", "note": "(repeat unit)", "glass transition temperature": 74.00}
{"smiles": "*O[Si](C)(C)O[Si](C)(C)O[Si](C)(C)O[Si](C)(C)OC(C)CCC(*)C", "note": "(repeat unit)", "glass transition temperature": -96.00}
{"smiles": "*Oc1ccc(S(=O)(=O)c2ccc(-c3ccc(*)cc3)cc2)cc1", "note": "(repeat unit)", "glass transition temperature": 269.00}
{"smiles": "*c1ccc(Oc2ccc(C(=O)c3ccc(Oc4ccc(-c5c6c(c(*)c7ccccc57)C(=O)N(C)C6=O)cc4)cc3)cc2)cc1", "note": "(repeat unit)", "glass transition temperature": 283.00}
{"smiles": "*CC(*)C(=O)OCCCCCCCCCCCCCCCCCC", "note": "(repeat unit) [Poly(octadecyl acrylate)]", "glass transition temperature": "-2.33 ± 57"}
{"smiles": "*Oc1ccc(Oc2ccc(OC(=O)c3cccc(Oc4ccc(Oc5cccc(C(*)=O)c5)cc4)c3)cc2)cc1", "note": "(repeat unit)", "glass transition temperature": 104.00}
{"smiles": "*C(=O)c1ccc2c(c1)C(=O)N(c1ccc(C(=O)Nc3cccc(N4C(=O)c5ccc(*)cc5C4=O)c3)cc1)C2=O", "note": "(repeat unit)", "glass transition temperature": 311.00}
{"smiles": "*C(=O)Nc1ccc(NC(=O)c2ccc3c(c2)C(=O)N(c2cccc(P(=O)(c4ccccc4)c4cccc(N5C(=O)c6ccc(*)cc6C5=O)c4)c2)C3=O)cc1", "note": "(repeat unit)", "glass transition temperature": 204.00}
